Results: PubChem BioAssay AID1963983 (Molecular Pharmacology Branch, DTP, NCI, 2024)

Tested on: 186277-243-T-J2-PDC multi-cell spheroid viability
Test: Anticancer human tumor 186277-243-T-J2-PDC patient-derived colon adenocarcinoma cell line growth inhibition [PI3K]
Conditions: for IC50: curve of first compound; for viability, T/C: stronger effect = lower value
Method in brief: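 Tumor cells grown as multi-cell spheroids with HUVEC endothelial cells and MSC fibroblast-like stroma were treated with targeted agents combined with inavolisib, alpelisib, duvelisib or copanlisib. Doses fell in half-log steps from near clinical Cmax, else from 10 microM. Viability was measured.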

[1] = second compound 0.0316 µM, first compound 0.0316 µM
[2] = second compound 0.0316 µM, first compound 0.1 µM
[3] = second compound 0.0316 µM, first compound 0.316 µM
[4] = second compound 0.0316 µM, first compound 1 µM
[5] = second compound 0.0316 µM, first compound 3.16 µM
[6] = second compound 0.0316 µM, first compound 10 µM
[7] = second compound 0.1 µM, first compound 0.0316 µM
[8] = second compound 0.1 µM, first compound 0.1 µM
[9] = second compound 0.1 µM, first compound 0.316 µM
[10] = second compound 0.1 µM, first compound 1 µM
[11] = second compound 0.1 µM, first compound 3.16 µM
[12] = second compound 0.1 µM, first compound 10 µM
[13] = second compound 0.316 µM, first compound 0.0316 µM
[14] = second compound 0.316 µM, first compound 0.1 µM
[15] = second compound 0.316 µM, first compound 0.316 µM
[16] = second compound 0.316 µM, first compound 1 µM
[17] = second compound 0.316 µM, first compound 3.16 µM
[18] = second compound 0.316 µM, first compound 10 µM
[19] = second compound 1 µM, first compound 0.0316 µM
[20] = second compound 1 µM, first compound 0.1 µM
[21] = second compound 1 µM, first compound 0.316 µM
[22] = second compound 1 µM, first compound 1 µM
[23] = second compound 1 µM, first compound 3.16 µM
[24] = second compound 1 µM, first compound 10 µM
[25] = second compound 3.16 µM, first compound 0.0316 µM
[26] = second compound 3.16 µM, first compound 0.1 µM
[27] = second compound 3.16 µM, first compound 0.316 µM
[28] = second compound 3.16 µM, first compound 1 µM
[29] = second compound 3.16 µM, first compound 3.16 µM
[30] = second compound 3.16 µM, first compound 10 µM
[31] = second compound 10 µM, first compound 0.0316 µM
[32] = second compound 10 µM, first compound 0.1 µM
[33] = second compound 10 µM, first compound 0.316 µM
[34] = second compound 10 µM, first compound 1 µM
[35] = second compound 10 µM, first compound 3.16 µM
[36] = second compound 10 µM, first compound 10 µM
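Also: spheroids exposed to compounds for seven days before viability reading.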
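For viability, T/C in this document: 100% = DMSO vehicle control viability.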

`CC1(C)CCC(CN2CCN(c3ccc(C(=O)NS(=O)(=O)c4ccc(NCC5CCOCC5)c([N+](=O)[O-])c4)c(Oc4cnc5[nH]ccc5c4)c3)CC2)=C(c2ccc(Cl)cc2)C1` + CC(Nc1ncnc2nc[nH]c12)c1cc2cccc(Cl)c2c(=O)n1-c1ccccc1 gave an IC50 (second compound 0.0316 µM) of 4.86 µM, an IC50 (second compound 0.1 µM) of 4.45 µM and an IC50 (second compound 0.316 µM) of 5.63 µM. For the same compound, the IC50 (second compound 1 µM) was 4.84 µM, the IC50 (second compound 3.16 µM) was 5.17 µM and the IC50 (second compound 10 µM) was 4.67 µM. The viability, T/C [1] was 96.6%, the viability, T/C [2] was 96.2% and the viability, T/C [3] was 95%. For the same compound, the viability, T/C [4] was 105%, the viability, T/C [5] was 77.3% and the viability, T/C [6] was 4.52%. The viability, T/C [7] was 99.5%, the viability, T/C [8] was 116% and the viability, T/C [9] was 96.7%. It also gave a viability, T/C [10] of 92.2%, a viability, T/C [11] of 70.5% and a viability, T/C [12] of 4.02%. The viability, T/C [13] was 97%, the viability, T/C [14] was 108% and the viability, T/C [15] was 91.8%. It also gave a viability, T/C [16] of 98.6%, a viability, T/C [17] of 92.1% and a viability, T/C [18] of 8%. The viability, T/C [19] was 105%, the viability, T/C [20] was 116% and the viability, T/C [21] was 102%. It also gave a viability, T/C [22] of 112%, a viability, T/C [23] of 77% and a viability, T/C [24] of 4.04%. For the same compound, the viability, T/C [25] was 112%, the viability, T/C [26] was 115% and the viability, T/C [27] was 106%. It also gave a viability, T/C [28] of 103%, a viability, T/C [29] of 85.9% and a viability, T/C [30] of 3.14%. It also gave a viability, T/C [31] of 97%, a viability, T/C [32] of 96.1% and a viability, T/C [33] of 97.2%. The viability, T/C [34] was 95.5%, the viability, T/C [35] was 74.7% and the viability, T/C [36] was 2.09%.

In the case of `CCCS(=O)(=O)Nc1ccc(F)c(C(=O)c2c[nH]c3ncc(-c4ccc(Cl)cc4)cc23)c1F` + CC(Nc1ncnc2nc[nH]c12)c1cc2cccc(Cl)c2c(=O)n1-c1ccccc1, the IC50 (second compound 0.0316 µM) is reported as 5.69 µM, the IC50 (second compound 0.1 µM) is reported as 5.06 µM and the IC50 (second compound 0.316 µM) is reported as 4.97 µM. For the same compound, the IC50 (second compound 1 µM) was 5.21 µM, the IC50 (second compound 3.16 µM) was 5.3 µM and the IC50 (second compound 10 µM) was 5.48 µM. For the same compound, the viability, T/C [1] was 85.8%, the viability, T/C [2] was 96.6% and the viability, T/C [3] was 105%. For the same compound, the viability, T/C [4] was 85.6%, the viability, T/C [5] was 96.5% and the viability, T/C [6] was 7.89%. It also gave a viability, T/C [7] of 97.5%, a viability, T/C [8] of 103% and a viability, T/C [9] of 93.2%. For the same compound, the viability, T/C [10] was 77.8%, the viability, T/C [11] was 83.7% and the viability, T/C [12] was 7.36%. It also gave a viability, T/C [13] of 97.3%, a viability, T/C [14] of 109% and a viability, T/C [15] of 87%. It also gave a viability, T/C [16] of 94.5%, a viability, T/C [17] of 76.5% and a viability, T/C [18] of 10.1%. For the same compound, the viability, T/C [19] was 86.7%, the viability, T/C [20] was 98.1% and the viability, T/C [21] was 95.5%. The viability, T/C [22] was 94%, the viability, T/C [23] was 82.3% and the viability, T/C [24] was 7.72%. It also gave a viability, T/C [25] of 113%, a viability, T/C [26] of 94.6% and a viability, T/C [27] of 90.6%. It also gave a viability, T/C [28] of 91%, a viability, T/C [29] of 84.8% and a viability, T/C [30] of 9.36%. The viability, T/C [31] was 108%, the viability, T/C [32] was 104% and the viability, T/C [33] was 106%. It also gave a viability, T/C [34] of 105%, a viability, T/C [35] of 87.6% and a viability, T/C [36] of 8.89%.

With `C[C@@H](NC(=O)c1ncnc(N)c1Cl)c1ncc(C(=O)Nc2cc(C(F)(F)F)c(Cl)cn2)s1` + CC(Nc1ncnc2nc[nH]c12)c1cc2cccc(Cl)c2c(=O)n1-c1ccccc1 the IC50 (second compound 0.0316 µM) was > 10 µM, the IC50 (second compound 0.1 µM) was > 10 µM and the IC50 (second compound 0.316 µM) was > 10 µM. The IC50 (second compound 1 µM) was > 10 µM, the IC50 (second compound 3.16 µM) was > 10 µM and the IC50 (second compound 10 µM) was 6.16 µM. It also gave a viability, T/C [1] of 92.6%, a viability, T/C [2] of 89.9% and a viability, T/C [3] of 93.7%. It also gave a viability, T/C [4] of 83.4%, a viability, T/C [5] of 105% and a viability, T/C [6] of 79.1%. For the same compound, the viability, T/C [7] was 84.3%, the viability, T/C [8] was 87.2% and the viability, T/C [9] was 90.1%. The viability, T/C [10] was 105%, the viability, T/C [11] was 108% and the viability, T/C [12] was 88%. The viability, T/C [13] was 94.5%, the viability, T/C [14] was 107% and the viability, T/C [15] was 94.3%. For the same compound, the viability, T/C [16] was 95%, the viability, T/C [17] was 105% and the viability, T/C [18] was 80.5%. For the same compound, the viability, T/C [19] was 88.1%, the viability, T/C [20] was 105% and the viability, T/C [21] was 96.7%. The viability, T/C [22] was 91%, the viability, T/C [23] was 102% and the viability, T/C [24] was 61.9%. For the same compound, the viability, T/C [25] was 107%, the viability, T/C [26] was 97.2% and the viability, T/C [27] was 104%. It also gave a viability, T/C [28] of 99.3%, a viability, T/C [29] of 93.3% and a viability, T/C [30] of 66.4%. It also gave a viability, T/C [31] of 84.8%, a viability, T/C [32] of 91.7% and a viability, T/C [33] of 107%. For the same compound, the viability, T/C [34] was 95.5%, the viability, T/C [35] was 72.8% and the viability, T/C [36] was 33.5%.
